Among the data in patent US20070148225A1 (ALCON, INC., priority 2005, published 2007) are IC50 values, retold here.

The subject of this test is FGFR. The experiment in a line: Kinase inhibition, cell-free enzymatic assay. Type of test: biochemical. Particulars: 1 mM ATP.

A word on the IC50: it is the concentration needed to halve the response being measured. The low end stands for greater potency in that assay, the high end for weaker potency in that assay.

On to `Cc1ccc(F)c(NC(=O)Nc2ccc(-c3cccc4[nH]nc(N)c34)cc2)c1` [RTKi, N-[4-(3-amino-1H-indazol-4-yl)phenyl]-N′-(2-fluoro-5-methylphenyl) urea], for which the IC50 was above 12.5 µM.
